Results as given in patent US9371280B2, “Substituted pyrrolidine-2-carboxamides” (Hoffmann-La Roche Inc., priority 2012, dated 2016).

Molecular target: interaction between p53 and MDM2 proteins (recombinant GST-tagged MDM2) (Homo sapiens, UniProt Q00987)
Assay: HTRF assay of inhibition of the p53-MDM2 interaction (GST-MDM2 / biotinylated p53 peptide);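 also: FRET read-out from Eu-labelled anti-GST antibody to streptavidin-APC, with 90 nM N-terminally biotinylated p53 peptide and 160 ng/ml GST-MDM2 in Tris-borate saline containing 1 mM DTT, 384-well format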
Format: binding
Conditions: HTRF, 0.02% BSA, 37° C. 1 h
Description: The ability of the compounds to inhibit the interaction between p53 and MDM2 proteins was measured by an HTRF (homogeneous time-resolved fluorescence) assay in which recombinant GST-tagged MDM2 binds to a peptide that resembles the MDM2-interacting region of p53 (Lane et al.). Binding of GST-MDM2 protein and p53-peptide (biotinylated on its N-terminal end) is registered by the FRET (fluorescence resonance energy transfer) between Europium (Eu)-labeled anti-GST antibody and streptavidin-conjugated Allophycocyanin (APC).
Test is performed in black flat-bottom 384-well plates (Costar) in a total volume of 40 uL containing: 90 nM biotinylate peptide, 160 ng/ml GST-MDM2, 20 nM streptavidin-APC (PerkinElmerWallac), 2 nM Eu-labeled anti-GST-antibody (PerkinElmerWallac), 0.02% bovine serum albumin (BSA), 1 mM dithiothreitol (DTT) and 20 mM Tris-borate saline (TBS) buffer as follows: Add 10 uL of GST-MDM2 (640 ng/ml working solution) in reaction buffer to each well. […] Incubate at 37° C. for 1 h.

Sequence of interaction between p53 and MDM2 proteins (recombinant GST-tagged MDM2) (Q00987 whole entry): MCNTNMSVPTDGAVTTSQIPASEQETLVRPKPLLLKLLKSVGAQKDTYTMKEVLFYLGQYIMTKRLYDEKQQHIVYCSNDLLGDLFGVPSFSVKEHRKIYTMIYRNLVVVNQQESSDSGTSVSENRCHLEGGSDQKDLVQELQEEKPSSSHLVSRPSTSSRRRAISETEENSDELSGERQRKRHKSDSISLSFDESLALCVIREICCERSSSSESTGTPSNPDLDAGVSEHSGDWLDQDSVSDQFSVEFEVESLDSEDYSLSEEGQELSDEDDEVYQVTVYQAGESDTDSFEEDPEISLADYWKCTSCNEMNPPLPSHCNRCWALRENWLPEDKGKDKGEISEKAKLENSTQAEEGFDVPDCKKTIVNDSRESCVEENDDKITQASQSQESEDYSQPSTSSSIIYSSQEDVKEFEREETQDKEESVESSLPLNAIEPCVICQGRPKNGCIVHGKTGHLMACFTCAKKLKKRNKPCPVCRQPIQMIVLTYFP

**Q.** `C=CCOC(=O)[C@H](CCCCNC(=O)OC(C)(C)C)NC(=O)COC(=O)c1ccc(NC(=O)[C@@H]2N[C@@H](CC(C)(C)C)[C@](C#N)(c3ccc(Cl)cc3F)[C@H]2c2cccc(Cl)c2F)c(OC)c1` [Example 78, 4-{[(2R,3S,4R,5S)-4-(4-Chloro-2-fluoro-phenyl)-3-(3-chloro-2-fluoro-phenyl)-4-cyano-5-(2,2-dimethyl-propyl)-pyrrolidine-2-carbonyl]-amino}-3-methoxy-benzoic acid ((S)-1-allyloxycarbonyl-5-tert-butoxycarbonylamino-pentylcarbamoyl)-methyl ester] was tested. Which IC50 did it give?
**A.** 16.6 nM
